The record followed here is ChEMBL document CHEMBL2321732, “Synthesis and evaluation of novel 2,3,5-triaryl-4H,2,3,3a,5,6,6a-hexahydropyrrolo[3,4-d]isoxazole-4,6-diones for advanced glycation end product formation inhibitory activity” (Bioorg Med Chem Lett, 2013).

This series is described as follows: Antiglycation activity assessed as inhibition of glucose-mediated advanced glycation end product formation after 30 hrs by fluorescence spectrophotometry in presence of bovine serum albumin. The series is classed as physicochemical.
With `Cc1ccc(N2C(=O)[C@@H]3[C@@H](ON(c4ccccc4)[C@H]3c3ccccc3O)C2=O)cc1`, the IC50 is 75 µM.

In the case of `O=C(O)c1ccc(N2C(=O)[C@@H]3[C@@H](ON(c4ccccc4)[C@H]3c3ccccc3O)C2=O)cc1` (relative stereo), the IC50 was determined as 63.9 µM.

In the case of `O=C(O)c1ccc(N2C(=O)[C@@H]3[C@@H](ON(c4ccccc4)[C@H]3c3ccccc3Cl)C2=O)cc1` (relative stereo), the IC50 came out at 127 µM.

Consider `O=C1[C@H]2[C@@H](c3ccccc3Cl)N(c3ccccc3)O[C@H]2C(=O)N1c1ccccc1` (relative stereo), for which the concentration for half-maximal inhibition (IC50) turned out to be 7.4 µM.

As to `O=C1[C@@H]2[C@@H](ON(c3ccccc3)[C@H]2c2ccccc2Cl)C(=O)N1c1ccccc1` (relative stereo), the IC50 came out at 30.9 µM.

Consider `Cc1ccc(N2C(=O)[C@H]3[C@@H](c4ccccc4Cl)N(c4ccccc4)O[C@H]3C2=O)cc1` (relative stereo), for which the IC50 came to 7.18 µM.

On to `Cc1ccc(N2C(=O)[C@@H]3[C@@H](ON(c4ccccc4)[C@H]3c3ccccc3Cl)C2=O)cc1` (relative stereo), for which the IC50 was 23.9 µM.

Regarding `COc1ccc(N2C(=O)[C@H]3[C@@H](c4ccccc4Cl)N(c4ccccc4)O[C@H]3C2=O)cc1` (relative stereo), the IC50 was 8.63 µM.

In the case of `COc1ccc(N2C(=O)[C@@H]3[C@@H](ON(c4ccccc4)[C@H]3c3ccccc3Cl)C2=O)cc1` (relative stereo), the IC50 was found to be 24.2 µM.

For `O=C(O)c1ccc(N2C(=O)[C@H]3[C@@H](c4ccccc4Cl)N(c4ccccc4)O[C@H]3C2=O)cc1` (relative stereo), the concentration for half-maximal inhibition (IC50) was determined as 33 µM.

With `O=C1[C@H]2[C@@H](c3ccccc3O)N(c3ccccc3)O[C@H]2C(=O)N1c1ccccc1` (relative stereo), the IC50 was 25.9 µM.

In the case of `O=C1[C@@H]2[C@@H](ON(c3ccccc3)[C@H]2c2ccccc2O)C(=O)N1c1ccccc1` (relative stereo), the IC50 was found to be 64.8 µM.

For the compound `Cc1ccc(N2C(=O)[C@H]3[C@@H](c4ccccc4O)N(c4ccccc4)O[C@H]3C2=O)cc1` (relative stereo), the IC50 stood at 18.8 µM.

`COc1ccc(N2C(=O)[C@H]3[C@@H](c4ccccc4O)N(c4ccccc4)O[C@H]3C2=O)cc1` (relative stereo): the 50% inhibitory concentration (IC50) came to 26.6 µM.

As to `COc1ccc(N2C(=O)[C@@H]3[C@@H](ON(c4ccccc4)[C@H]3c3ccccc3O)C2=O)cc1` (relative stereo), the concentration for half-maximal inhibition (IC50) is 90.1 µM.

Turning to `O=C(O)c1ccc(N2C(=O)[C@H]3[C@@H](c4ccccc4O)N(c4ccccc4)O[C@H]3C2=O)cc1` (relative stereo), the IC50 was determined as 24.4 µM.

As for `N=C(N)NN` [PIMAGEDINE], the IC50 stood at 40.5 µM.

As usually defined, the IC50 is the midpoint of a concentration-inhibition curve.
